Source: US8183239B2, “Substituted piperazines and piperidines as modulators of the neuropeptide Y2 receptor” (Janssen Pharmaceutica NV, priority 2005, dated 2012)

Molecular target: T1, Y2 receptors (Homo sapiens, UniProt P49146)
T1 construct: endogenous in cells; host or cells: KAN-Ts cells (membranes)
T1 sequence (P49146 1-381): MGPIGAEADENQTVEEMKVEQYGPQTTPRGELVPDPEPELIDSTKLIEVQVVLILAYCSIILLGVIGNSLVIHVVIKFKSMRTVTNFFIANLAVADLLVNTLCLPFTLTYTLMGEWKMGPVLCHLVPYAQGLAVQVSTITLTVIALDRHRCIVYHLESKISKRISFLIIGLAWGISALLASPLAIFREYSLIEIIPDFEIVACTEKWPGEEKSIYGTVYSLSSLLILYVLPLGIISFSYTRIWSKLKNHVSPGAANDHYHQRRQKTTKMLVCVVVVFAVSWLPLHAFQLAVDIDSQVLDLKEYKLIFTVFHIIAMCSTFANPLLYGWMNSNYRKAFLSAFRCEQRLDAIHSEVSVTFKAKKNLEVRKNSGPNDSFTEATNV
Assay: Radioligand binding assay ([125I]PYY, KAN-Ts cell membranes)
Settings: Table 2, [125I]PYY 80 pM, average of results, read-out: IC50
Procedure, shortened: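 Membranes from KAN-Ts cells endogenously expressing Y2 incubated 1 h at rt with 80 pM [^125I]PYY ± test compound in HEPES buffer with NaCl, Ca^2+ and Mg^2+. Bound radioactivity collected by filtration; specific binding defined with […]. IC50 from sigmoidal fit, averaged over 3-8 duplicate experiments.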

Row | SMILES | IC50
1 | CCN(CC)C(=O)C(c1ccccc1)N1CCN(c2ccc(N3CCNS3(=O)=O)cc2F)CC1 (stereo not drawn) [Example 174, N,N-Diethyl-2-{4-[2-fluoro-4-(1,2,5-thiadiazolidine-2-yl,1,1-dioxide)-phenyl]-piperazin-1-yl}-2-phenyl-acetamide] | 4000 nM
2 | CCOC(=O)C(c1ccccc1)N1CCN(c2ccc(N3CCN(C(=O)OC)S3(=O)=O)cc2F)CC1 (stereo not drawn) [Example 175, 3-{4-[4-(Ethoxycarbonyl-phenyl-methyl)-piperazin-1-yl]-3-fluoro-phenyl}-1,2,5-thiadiazolidine, 1,1-dioxide-2-carboxylic acid methyl ester] | ≥ 10000 nM
3 | CCOC(=O)C(c1ccccc1)N1CCN(c2ccc(N3CCNS3(=O)=O)cc2F)CC1 (stereo not drawn) [Example 176, {4-[2-Fluoro-4-(1,2,5-Thiadiazolidine-2-yl,1,1-dioxide)-phenyl]-piperazin-1-yl}-phenyl-acetic acid ethyl ester] | ≥ 10000 nM
4 | CCOC(=O)C(c1ccccc1)N1CCN(c2ccc(N3CCN(C4CCN(CC)C4)S3(=O)=O)cc2F)CC1 (stereo not drawn) [Example 177, {4-[2-Fluoro-4-(5-(1-Ethyl-pyrrolidin-3-yl)-1,2,5-thiadiazolidine-2-yl, 1,1-dioxide)-phenyl]-piperazin-1-yl}-phenyl-acetic acid ethyl ester] | ≥ 10000 nM
5 | CCOC(=O)C(c1ccccc1)N1CCN(c2ccc(N3CCN(C4CCOC4)S3(=O)=O)cc2F)CC1 (stereo not drawn) [Example 178, {4-[2-Fluoro-4-(5-(tetrahydro-furan-3-yl)-1,2,5-thiadiazolidine-2-yl, 1,1-dioxide)-phenyl]-piperazin-1-yl}-phenyl-acetic acid ethyl ester] | 2900 nM
6 | CCCN1CCN(c2ccc(N3CCN(C(C(=O)OCC)c4ccccc4)CC3)c(F)c2)S1(=O)=O (stereo not drawn) [Example 179, {4-[2-Fluoro-4-(5-propyl-1,2,5-thiadiazolidine-2-yl,1,1-dioxide)-phenyl]-piperazin-1-yl}-phenyl-acetic acid ethyl ester] | 540 nM
7 | CCOC(=O)C(c1ccccc1)N1CCN(c2ccc(N3CCN(C4CCCC4)S3(=O)=O)cc2F)CC1 (stereo not drawn) [Example 180, {4-[2-Fluoro-4-(5-cyclopentyl-1,2,5-thiadiazolidine-2-yl,1,1-dioxide)-phenyl]-piperazin-1-yl}-phenyl-acetic acid ethyl ester] | 770 nM
8 | CCN(CC)C(=O)C(c1ccccc1)N1CC=C(c2ccc(C(=O)OC)cc2F)CC1 (stereo not drawn) [Example 181, 4-[1-(Diethylcarbamoyl-phenyl-methyl)-1,2,3,6-tetrahydro-pyridin-4-yl]-3-fluoro-benzoic acid methyl ester] | 9300 nM
9 | CCC(CC)C(=O)Nc1cnc(N2CCN(C(C(=O)N(CC)CC)c3ccccc3)CC2)nc1 (stereo not drawn) [Example 182, N-{2-[4-(Diethylcarbamoyl-phenyl-methyl)-piperazin-1-yl]-pyrimidin-5-yl}-2-ethyl-butyramide] | 1650 nM
10 | CCC(CC)C(=O)Nc1ccc(N2CCN(C(C(=O)N(CC)CC)c3ccccc3)CC2)nn1 (stereo not drawn) [Example 183, N-{6-[4-(Diethylcarbamoyl-phenyl-methyl)-piperazin-1-yl]-pyridazin-3-yl}-2-ethyl-butyramide] | 4500 nM
11 | CCC(CC)C(=O)Nc1ccc(N2CCN(C(C(=O)NN)c3ccccc3)CC2)c(F)c1 (stereo not drawn) [Example 184, 2-Ethyl-N-{3-fluoro-4-[4-(hydrazinocarbonyl-phenyl-methyl)-piperazin-1-yl]-phenyl}-butyramide] | 870 nM
12 | CCN(CC)C(=O)C(c1ccccc1)N1CCN(c2ccc(C(=O)OC)cc2F)CC1 (stereo not drawn) [Example 185, 4-[4-(Diethylcarbamoyl-phenyl-methyl)-piperazin-1-yl]-3-fluoro-benzoic acid methyl ester] | 2400 nM
13 | CCN(CC)C(=O)C(c1ccccc1)C1CCN(c2ccc(NC(=O)c3ccnn3CC)cc2F)CC1 (stereo not drawn) [Example 186, 2-Ethyl-2H-pyrazole-3-carboxylic acid {4-[4-(diethylcarbamoyl-phenyl-methyl)-piperidin-1-yl]-3-fluoro-phenyl}-amide] | 210 nM
14 | CCN(CC)C(=O)C(c1ccccc1)C1CCN(c2ccc(NC(=O)c3cccn3CC)cc2F)CC1 (stereo not drawn) [Example 187, 1-Ethyl-1H-pyrrole-2-carboxylic acid {4-[4-(diethylcarbamoyl-phenyl-methyl)-piperidin-1-yl]-3-fluoro-phenyl}-amide] | 148 nM
15 | CCCCC(O)(c1ccccc1)C1CCN(c2ccc(NC(=O)C(CC)CC)cc2F)CC1 (stereo not drawn) [Example 188, 2-Ethyl-N-{3-fluoro-4-[4-(1-hydroxy-1-phenyl-pentyl)-piperidin-1-yl]-phenyl}-butyramide] | 200 nM
16 | CCCCC(c1ccccc1)C1CCN(c2ccc(NC(=O)C(CC)CC)cc2F)CC1 (stereo not drawn) [Example 189, 2-Ethyl-N-{3-fluoro-4-[4-(1-phenyl-pentyl)-piperidin-1-yl]-phenyl}-butyramide] | ≥ 10000 nM
17 | CCC(CC)NC(=O)c1ccc(N2CCN(C(C(=O)N(CC)CC)c3ccccc3)CC2)c(F)c1 (stereo not drawn) [Example 190, 4-[4-(Diethylcarbamoyl-phenyl-methyl)-piperazin-1-yl]-N-(1-ethyl-propyl)-3-fluoro-benzamide] | 5700 nM
18 | CCN(CC)C(=O)C(c1ccccc1)N1CCN(c2ccc(Nc3ccccn3)cc2F)CC1 (stereo not drawn) [Example 191, N,N-Diethyl-2-{4-[2-fluoro-4-(pyridin-2-ylamino)-phenyl]-piperazin-1-yl}-2-phenyl-acetamide] | 380 nM
19 | CCN(CC)C(=O)C(c1ccccc1)N1CCN(c2ccc(Nc3ncccc3C)cc2F)CC1 (stereo not drawn) [Example 192, N,N-Diethyl-2-{4-[2-fluoro-4-(3-methyl-pyridin-2-ylamino)-phenyl]-piperazin-1-yl}-2-phenyl-acetamide] | 5000 nM
20 | CCC(CC)C(=O)Nc1ccc(C2=CCN(C(C(=O)N(CC)CC)c3ccccc3)CC2)c(F)c1 (stereo not drawn) [Example 193, N-{4-[1-(Diethylcarbamoyl-phenyl-methyl)-1,2,3,6-tetrahydro-pyridin-4-yl]-3-fluoro-phenyl}-2-ethyl-butyramide] | 140 nM
21 | CCC(CC)C(=O)Nc1ccc(C2CCN(C(C(=O)N(CC)CC)c3ccccc3)CC2)c(F)c1 (stereo not drawn) [Example 194, N-{4-[1-(Diethylcarbamoyl-phenyl-methyl)-piperidin-4-yl]-3-fluoro-phenyl}-2-ethyl-butyramide] | 100 nM
22 | CCC(CC)C(=O)Nc1ccc(N2CCN(C(C(=O)N(CC)CC)c3cccc(Cl)c3)CC2)c(F)c1 (stereo not drawn) [Example 195, N-(4-{4-[(3-Chloro-phenyl)-diethylcarbamoyl-methyl]-piperazin-1-yl}-3-fluoro-phenyl)-2-ethyl-butyramide] | 50 nM
23 | CCC(CC)C(=O)Nc1ccc(N2CCN(C(C(=O)N3CCC(F)(F)CC3)c3cccc(F)c3)CC2)c(F)c1 (stereo not drawn) [Example 196, N-(4-{4-[2-(4,4-Difluoro-piperidin-1-yl)-1-(3-fluoro-phenyl)-2-oxo-ethyl]-piperazin-1-yl}-3-fluoro-phenyl)-2-ethyl-butyramide] | 107 nM
24 | CCC(CC)C(=O)Nc1ccc(N2CCN(C(C(=O)N(CC)CC)c3ccc(F)cc3F)CC2)c(F)c1 (stereo not drawn) [Example 197, N-(4-{4-[Diethylcarbamoyl-(2,4-difluoro-phenyl)-methyl]-piperazin-1-yl}-3-fluoro-phenyl)-2-ethyl-butyramide] | 150 nM
